# According to ChEMBL document CHEMBL1124664, “Synthesis and cytostatic and antiviral activities of 1-beta-D-ribofuranosyl-5-alkylcytosine (5-alkylcytidine) cyclic 3',5'-monophosphates” (1989):
# The source made the active and inactive calls. No cut-off for these calls is given here.
# Legend:
# [1] = system: Vesicular stomatitis virus; test: Antiviral activity on the replication of vesicular stomatitis virus at 400 ug/mL.; format: functional, organism-based
# [2] = system: Human alphaherpesvirus 2; test: Antiviral activity on the replication of HSV-2 at 400 ug/mL.; format: functional, organism-based
# [3] = system: L1210/ara C; test: Inhibition of L1210/arac cell proliferation at 200 ug/mL; IA means Inactive; format: functional, cell-based; settings: Mus musculus
# [4] = system: Human alphaherpesvirus 1; test: Antiviral activity on the replication of HSV-1 at 400 ug/mL.; format: functional, organism-based
# [5] = system: L1210; test: Inhibition of L1210/0 cell proliferation; format: functional; settings: Mus musculus, read-out: ID50 (the source's name)
# [6] = system: Vaccinia virus; test: Antiviral activity on the replication of vaccinia virus at 400 ug/mL.; format: functional, organism-based; settings: Orthopoxvirus vaccinia
# [7] = system: L1210/ara C; test: Inhibition of L1210/ara C cell proliferation; format: functional; settings: Mus musculus, read-out: ID50 (the source's name)
# [8] = system: L1210; test: Cytotoxic activity against murine leukemia L1210 cells; format: functional; settings: Mus musculus, read-out: ID50 (the source's name)
# [9] = species on record: Oryctolagus cuniculus; test: Inhibition of rabbit skeletal muscle protein kinase I; format: functional
# [10] = system: L1210; test: Cytotoxic activity against murine leukemia L1210/deoxycytidine kinase deficient cell lines; format: functional; settings: Mus musculus, read-out: ID50 (the source's name)
SMILES,Activity [1],Activity [2],Activity [3],Activity [4],IC50 [5] [µg/mL],Activity [6],IC50 [7] [µg/mL],IC50 [8] [µg/mL],Ka [9] [µM],IC50 [10] [µg/mL]
Cc1cn([C@@H]2O[C@H](COP(=O)(O)O)[C@@H](O)[C@H]2O)c(=O)nc1N,inactive,inactive,inactive,inactive,162,inactive,–,–,–,–
CCCCc1cn(C2O[C@H](COP(=O)(O)O)[C@@H](O)[C@H]2O)c(=O)nc1N (stereo partly specified),inactive,inactive,–,inactive,–,inactive,–,–,–,–
CC(C)c1cn([C@@H]2O[C@H](CO)[C@@H](O)[C@H]2O)c(=O)nc1N,–,–,inactive,–,35,–,39,–,–,–
CCCCCCCCc1cn([C@@H]2O[C@@H]3COP(=O)(O)O[C@H]3[C@H]2O)c(=O)nc1N.N,inactive,inactive,–,inactive,–,inactive,–,> 200,0.8,> 200
Nc1ccn([C@@H]2O[C@H](COP(=O)(O)O)[C@@H](O)[C@H]2O)c(=O)n1,–,–,inactive,–,43,–,–,–,–,–
Cc1cn([C@@H]2O[C@H](CO)[C@@H](O)[C@H]2O)c(=O)nc1N,–,–,inactive,–,94,–,–,–,–,–
CCCCCc1cn(C2O[C@H](COP(=O)(O)O)[C@@H](O)[C@H]2O)c(=O)nc1N (stereo partly specified),inactive,inactive,–,inactive,–,inactive,–,–,–,–
CCCCCCc1cn([C@@H]2O[C@@H]3COP(=O)(O)O[C@H]3[C@H]2O)c(=O)nc1N.N,inactive,inactive,–,inactive,–,inactive,–,> 200,0.8,> 200
CCc1cn(C2O[C@H](COP(=O)(O)O)[C@@H](O)[C@H]2O)c(=O)nc1N (stereo partly specified),inactive,inactive,–,inactive,–,inactive,–,–,–,–
CCCCCCc1cn(C2O[C@H](COP(=O)(O)O)[C@@H](O)[C@H]2O)c(=O)nc1N (stereo partly specified),inactive,inactive,–,inactive,–,inactive,–,–,–,–
CCc1cn([C@@H]2O[C@@H]3COP(=O)(O)O[C@H]3[C@H]2O)c(=O)nc1N.N,inactive,inactive,–,inactive,–,inactive,–,> 200,0.8,> 200
Nc1ccn([C@@H]2O[C@@H]3COP(=O)(O)O[C@H]3[C@H]2O)c(=O)n1,–,–,–,–,43,–,–,–,0.03,–
CC(C)c1cn([C@@H]2O[C@@H]3COP(=O)(O)O[C@H]3[C@H]2O)c(=O)nc1N.N,inactive,inactive,–,inactive,–,inactive,–,> 200,0.8,> 200
CCCCCCCCc1cnc(O)nc1N,–,–,inactive,–,190,–,–,–,–,–
CCCCCCCCc1cn(C2O[C@H](COP(=O)(O)O)[C@@H](O)[C@H]2O)c(=O)nc1N (stereo partly specified),inactive,inactive,–,inactive,–,inactive,–,–,–,–
Cc1cn([C@@H]2O[C@@H]3COP(=O)(O)O[C@H]3[C@H]2O)c(=O)nc1N.N,inactive,inactive,–,inactive,–,inactive,–,> 200,–,> 200
CCCCc1cn([C@@H]2O[C@@H]3COP(=O)(O)O[C@H]3[C@H]2O)c(=O)nc1N.N,inactive,inactive,–,inactive,–,inactive,–,> 200,0.8,> 200
CCCc1cn(C2O[C@H](COP(=O)(O)O)[C@@H](O)[C@H]2O)c(=O)nc1N (stereo partly specified),inactive,inactive,–,inactive,–,inactive,–,–,–,–
CC(C)c1cn(C2O[C@H](COP(=O)(O)O)[C@@H](O)[C@H]2O)c(=O)nc1N (stereo partly specified),inactive,inactive,–,inactive,–,inactive,–,–,–,–
